Drawing on PubChem BioAssay (NCI), this text covers TGI and GI50 for 13 compounds.

In brackets after ≈: the same amount, converted by molar mass. Several values for one entry are separate records, joined by “and”; a condition that tells them apart may be missing. Identical values can stand only once.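 These data come from cells grown in 96-well plates and exposed to compound for 48 hours at five concentrations. GI50: concentration for 50% inhibition of growth. Definition used: TGI = concentration required for complete inhibition of growth.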

Among the test systems are HOP-62 NSCLC; OVCAR-3 ovarian; MOLT-4 leukemia; HCC-2998 colon; UACC-62 melanoma; SF-268 CNS; SK-MEL-2 melanoma; MDA-MB-435; NCI-H23 lung; RPMI-8226 leukemia.
Holding throughout (assay): inhibition of tumour cell growth, NCI panel, 48 h

For `O=C(c1ccc(Cl)cc1)N(C(=S)OCCOc1ccccc1)c1ccccc1`, the TGI in the experiment with HOP-62 NSCLC is 54 µM; in the experiment on OVCAR-3 ovarian, 30.9 µM; in the experiment with MOLT-4 leukemia it was 59.8 µM; with HCC-2998 colon it was 35.2 µM; with UACC-62 melanoma, 35.1 µM; with SF-268 CNS it was 60.4 µM. The TGI in the experiment with SK-MEL-2 melanoma stood at 45.7 µM; in the experiment on MDA-MB-435 it was 30.7 µM; in the experiment on NCI-H23 lung, 36.2 µM; in the experiment with RPMI-8226 leukemia, 44.1 µM.
Take `CCOP(=O)(OCC)OC1c2[nH]cc(C(=O)OCc3ccccc3)c2-c2cc(C(=O)OC)[nH]c2C1OC` (configuration not stated): the TGI with HOP-62 NSCLC is 36.3 µM; in the experiment on OVCAR-3 ovarian it was 54.8 µM; in the experiment with MOLT-4 leukemia it was above 100 µM; with HCC-2998 colon it was above 78.9 µM; in the experiment on UACC-62 melanoma, above 79.6 µM; in the experiment on SF-268 CNS, above 96 µM. In addition, the TGI with SK-MEL-2 melanoma is above 76.5 µM; in the experiment with MDA-MB-435, above 100 µM; with NCI-H23 lung, above 100 µM; in the experiment with RPMI-8226 leukemia, above 100 µM.
As to `CC(C)Oc1c(-c2ccc(F)cc2)c(O)c2c3c1oc(=O)n3C=CC2C` (configuration not stated), the TGI in the experiment on HOP-62 NSCLC was found to be 28.6 µM; with OVCAR-3 ovarian it was 27.9 µM; in the experiment on MOLT-4 leukemia it was 39.2 µM; in the experiment on HCC-2998 colon, 26.2 µM; in the experiment with UACC-62 melanoma it was 29.4 µM; with SF-268 CNS it was 35.2 µM. Further, the TGI with SK-MEL-2 melanoma is 53.3 µM; with MDA-MB-435, 52.9 µM; in the experiment with NCI-H23 lung, 24.6 µM; in the experiment on RPMI-8226 leukemia, 34.7 µM.
On to `Cc1cc(S(=O)(=O)/N=C(\[N-]S(=O)(=O)c2cc(Cl)sc2Cl)[n+]2ccc(N(C)C)cc2)c(S)cc1Cl`, for which the TGI with HOP-62 NSCLC, with OVCAR-3 ovarian, with MOLT-4 leukemia, with HCC-2998 colon, with SF-268 CNS and with SK-MEL-2 melanoma was above 100 µM throughout. Besides, the TGI with MDA-MB-435, with NCI-H23 lung and with RPMI-8226 leukemia was above 100 µM throughout.
Turning to `Cc1ccc(N/C(SCc2ccccc2)=C(\C(Cl)=C(Cl)Cl)[N+](=O)[O-])c(C)c1`, the TGI in the experiment with HOP-62 NSCLC was above 100 µM; in the experiment with OVCAR-3 ovarian, 40.2 µM; with MOLT-4 leukemia, above 100 µM; with HCC-2998 colon, above 100 µM; in the experiment on UACC-62 melanoma, above 100 µM; in the experiment with SF-268 CNS, 29.8 µM. Besides, the TGI with SK-MEL-2 melanoma was above 100 µM; in the experiment on MDA-MB-435, 26.1 µM; in the experiment on NCI-H23 lung, 38.5 µM; with RPMI-8226 leukemia, above 100 µM.
In the case of `O=C(OCCNC(=O)N1CC1)OCCNC(=O)N1CC1`, the TGI with HOP-62 NSCLC, in the experiment with OVCAR-3 ovarian, in the experiment with MOLT-4 leukemia, with HCC-2998 colon, in the experiment with UACC-62 melanoma and with SF-268 CNS was above 10 µM each time. Moreover, the TGI in the experiment with SK-MEL-2 melanoma, with MDA-MB-435, in the experiment on NCI-H23 lung and in the experiment with RPMI-8226 leukemia was above 10 µM throughout.
In the case of `CC1=C(C(=O)N[C@@H](CC(C)C)C(=O)O)N2C(=O)[C@@H](NC(=O)C(N)c3ccccc3)[C@H]2SC1` (some centres not stated), the TGI in the experiment with OVCAR-3 ovarian, in the experiment with MOLT-4 leukemia, in the experiment on HCC-2998 colon, in the experiment with UACC-62 melanoma, in the experiment with SF-268 CNS and in the experiment with SK-MEL-2 melanoma was above 100 µM throughout. Moreover, the TGI in the experiment with MDA-MB-435 and in the experiment on RPMI-8226 leukemia was above 100 µM each time.
Consider `COC(=O)CC1c2ccccc2N2C(=O)Cc3c([nH]c4ccccc34)C12` (configuration not stated), for which the TGI in the experiment on HOP-62 NSCLC, with OVCAR-3 ovarian, with MOLT-4 leukemia, in the experiment with HCC-2998 colon, with UACC-62 melanoma and in the experiment on SF-268 CNS was above 100 µM in each case. Moreover, the TGI in the experiment with SK-MEL-2 melanoma, with MDA-MB-435, with NCI-H23 lung and with RPMI-8226 leukemia was above 100 µM in each case.
Regarding `CCO/C=N/C1=C(C#N)SC2=N/C(=C\c3ccccc3)C(=O)N21`, the TGI in the experiment on HOP-62 NSCLC, in the experiment with OVCAR-3 ovarian, in the experiment on MOLT-4 leukemia, with HCC-2998 colon, in the experiment with UACC-62 melanoma and in the experiment on SF-268 CNS was above 100 µM throughout. The TGI with SK-MEL-2 melanoma, in the experiment with MDA-MB-435, with NCI-H23 lung and with RPMI-8226 leukemia was above 100 µM throughout.
In the case of `COc1cc2c(c(OC)c1OC)-c1ccc(SC)cc1C(O)CC2` (configuration not stated), the TGI in the experiment with OVCAR-3 ovarian is above 100 µM; in the experiment with HCC-2998 colon it was 18.3 µM; in the experiment on UACC-62 melanoma, 20.4 µM; in the experiment with SF-268 CNS it was 11.6 µM; with SK-MEL-2 melanoma, above 100 µM; in the experiment with MDA-MB-435 it was 17 µg/mL. The TGI in the experiment on NCI-H23 lung was above 100 µM; in the experiment with RPMI-8226 leukemia, > 100 µM and 45.9 µg/mL. Moreover, in the experiment with SK-MEL-2 melanoma, the GI50 was 27.4 µg/mL (≈ 79.2 µM).
Consider `BrCC[N+]12CC[N+](CCBr)(CC1)C2`, for which the TGI with HOP-62 NSCLC, with OVCAR-3 ovarian, in the experiment with MOLT-4 leukemia, with HCC-2998 colon, in the experiment on UACC-62 melanoma and in the experiment with SF-268 CNS was above 100 µM throughout. The TGI with SK-MEL-2 melanoma, with MDA-MB-435, in the experiment with NCI-H23 lung and with RPMI-8226 leukemia was above 100 µM in each case.
For `ClCCCCCc1c2nc(c(CCCCCCl)c3ccc([nH]3)c(CCCCCCl)c3ccc([nH]3)c(CCCCCCl)c3nc1C=C3)C=C2`, the TGI with HOP-62 NSCLC, with OVCAR-3 ovarian, in the experiment with MOLT-4 leukemia, with HCC-2998 colon, in the experiment on UACC-62 melanoma and with SF-268 CNS was above 100 µM in each case. The TGI in the experiment with SK-MEL-2 melanoma, with MDA-MB-435, in the experiment with NCI-H23 lung and in the experiment with RPMI-8226 leukemia was above 100 µM each time.
Consider `NS(=O)(=O)c1ccc(/C=C/c2ccc(O)cc2)cc1`, for which the TGI in the experiment with HOP-62 NSCLC is 82.9 µM; in the experiment on OVCAR-3 ovarian, 54.5 µM; with MOLT-4 leukemia, above 100 µM; with HCC-2998 colon it was 40.6 µM; with UACC-62 melanoma, 20.4 µM; in the experiment with SF-268 CNS, above 100 µM. Also, the TGI is 60.3 µM in the experiment with SK-MEL-2 melanoma, above 100 µM with MDA-MB-435, 60.1 µM in the experiment on NCI-H23 lung and 39.3 µM in the experiment on RPMI-8226 leukemia. Also, the GI50 is 22.6 µM with MOLT-4 leukemia; 3.4 µM with UACC-62 melanoma; 31.5 µM in the experiment on SF-268 CNS; 20.3 µM in the experiment on MDA-MB-435; 16.9 µM in the experiment with NCI-H23 lung; 7.09 µM with RPMI-8226 leukemia.
